Test results as given in ChEMBL document CHEMBL1201862, “PubChem BioAssay data set” (2004).
Active and inactive are the calls of the source.

Assays:
[1] = target: Heat shock protein HSP 90-alpha (Homo sapiens, UniProt P07900); type: functional, organism-based
[2] = cells; type: functional, cell-based
[3] = target: T1, Adenosylmethionine-8-amino-7-oxononanoate aminotransferase (Mycobacterium tuberculosis, UniProt P9WQ81); test: Mycobacterium tuberculosis BioA enzyme inhibitor Measured in Biochemical System Using Plate Reader - 2163-02_Inhibitor_Dose_CherryPick_Activity.; type: functional, Mycobacterium tuberculosis UT205
T1 sequence (P9WQ81 whole entry): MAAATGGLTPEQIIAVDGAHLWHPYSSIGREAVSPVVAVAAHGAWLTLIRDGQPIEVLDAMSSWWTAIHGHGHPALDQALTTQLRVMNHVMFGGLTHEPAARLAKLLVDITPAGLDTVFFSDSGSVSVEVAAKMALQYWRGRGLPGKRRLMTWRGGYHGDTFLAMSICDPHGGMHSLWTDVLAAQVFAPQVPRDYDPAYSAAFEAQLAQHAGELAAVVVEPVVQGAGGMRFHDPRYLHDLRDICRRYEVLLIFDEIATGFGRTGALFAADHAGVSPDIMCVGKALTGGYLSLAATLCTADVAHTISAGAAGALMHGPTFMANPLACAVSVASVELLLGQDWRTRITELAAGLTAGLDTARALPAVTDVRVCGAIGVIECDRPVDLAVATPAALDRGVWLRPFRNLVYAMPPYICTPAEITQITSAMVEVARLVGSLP

[4] = target: T2, Heat shock factor protein 1 (Mus musculus, UniProt P38532); test: inhibition of MG132-induced HSE-luciferase signal, confirmation, cell-based, NIH3T3, luminescence, dose retest (AID 2382); type: functional;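 further: NIH3T3 fibroblasts with HSF1-driven luciferase reporter stressed by proteasome inhibitor MG132; luminescence from HSF1-driven luciferase expression after 8 hours of MG132 stress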
T2 sequence (P38532 whole entry): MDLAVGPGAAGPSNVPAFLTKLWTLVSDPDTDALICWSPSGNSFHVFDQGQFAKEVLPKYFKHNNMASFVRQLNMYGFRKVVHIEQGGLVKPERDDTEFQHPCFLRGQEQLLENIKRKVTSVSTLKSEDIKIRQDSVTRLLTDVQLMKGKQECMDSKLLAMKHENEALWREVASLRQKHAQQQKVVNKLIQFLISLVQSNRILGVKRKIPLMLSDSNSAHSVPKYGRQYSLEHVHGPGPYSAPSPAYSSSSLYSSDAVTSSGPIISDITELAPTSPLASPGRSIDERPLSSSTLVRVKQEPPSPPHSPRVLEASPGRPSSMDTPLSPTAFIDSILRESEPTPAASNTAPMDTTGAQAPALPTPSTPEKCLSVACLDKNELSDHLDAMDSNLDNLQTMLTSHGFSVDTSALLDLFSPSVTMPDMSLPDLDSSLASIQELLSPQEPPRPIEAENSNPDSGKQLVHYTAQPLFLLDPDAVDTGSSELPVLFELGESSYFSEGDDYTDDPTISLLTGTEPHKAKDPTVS

[5] = inhibitors of SNCA 5'UTR-driven reporter translation, confirmation, H4 neuroglioma cells, luminescence (AID 1988); type: functional, cell-based
[6] = inhibitors of firefly luciferase expression or activity, dose response, H4 neuroglioma cells, luminescence (AID 1990); type: functional, cell-based
[7] = Luminescence Cell-Based Dose Response HTS to Identify Inhibitors of 5'UTR Stem-Loop Driven Prion Protein mRNA Translation in H4 Neuroglioblastoma Cells. [Related pubchem assays: 1827 (Project Summary), 1813 (Primary HTS)]; type: functional
[8] = test system: HEK293; test: inhibitors of LMP1-driven NF-kB reporter, dose response, cell-based, HEK293, luciferase, cherry-pick (AID 588343); type: functional; details: Homo sapiens
[9] = target: T3, Corticotropin-releasing factor receptor 2/Corticotropin-releasing factor-binding protein (Homo sapiens, UniProt P24387+Q13324); test: Dose Response confirmation of uHTS hits for small molecule antagonists of the CRF-binding protein and CRF-R2 receptor complex.; type: functional; details: read-out: IC50_Mean
T3 sequence (Q13324 whole entry): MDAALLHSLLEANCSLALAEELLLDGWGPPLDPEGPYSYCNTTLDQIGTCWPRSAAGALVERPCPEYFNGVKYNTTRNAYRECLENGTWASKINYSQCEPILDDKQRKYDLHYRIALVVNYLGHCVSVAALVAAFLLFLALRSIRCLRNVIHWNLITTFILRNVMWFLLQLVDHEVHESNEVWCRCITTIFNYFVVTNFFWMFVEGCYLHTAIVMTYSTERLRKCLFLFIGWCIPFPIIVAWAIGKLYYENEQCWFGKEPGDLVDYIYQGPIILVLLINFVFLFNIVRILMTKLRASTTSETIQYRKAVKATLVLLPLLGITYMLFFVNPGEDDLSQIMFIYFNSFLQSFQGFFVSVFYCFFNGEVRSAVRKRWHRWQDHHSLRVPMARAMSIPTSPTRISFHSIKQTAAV
T3 sequence (P24387 whole entry): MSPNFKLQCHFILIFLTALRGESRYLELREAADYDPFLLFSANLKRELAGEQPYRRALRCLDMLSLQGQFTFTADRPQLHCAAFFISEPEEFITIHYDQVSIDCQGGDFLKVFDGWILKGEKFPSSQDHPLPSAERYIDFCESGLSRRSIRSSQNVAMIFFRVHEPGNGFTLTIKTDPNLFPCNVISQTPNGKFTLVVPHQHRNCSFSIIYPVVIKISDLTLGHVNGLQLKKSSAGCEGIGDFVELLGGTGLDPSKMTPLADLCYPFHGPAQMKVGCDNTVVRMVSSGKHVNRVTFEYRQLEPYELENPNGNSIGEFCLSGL

[10] = target: T3, Corticotropin-releasing factor receptor 2/Corticotropin-releasing factor-binding protein; test: activators of CRF receptor 2 with binding protein – uHTS hits, confirmation (AID 602473); type: functional; details: read-out: EC50_Mean
[11] = CRF-BP/CRF-R2 complex antagonists, dose response, cell-based, uHTS hits, 384-well (AID 651639); type: functional, Homo sapiens; details: read-out: IC50_Mean
[12] = target: T4, Caspase-3 (Homo sapiens, UniProt P42574); type: functional;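 further: Dose-response selectivity test against caspase-3 for candidate inhibitors of sentrin-specific proteases (SENPs)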
T4 sequence (P42574 whole entry): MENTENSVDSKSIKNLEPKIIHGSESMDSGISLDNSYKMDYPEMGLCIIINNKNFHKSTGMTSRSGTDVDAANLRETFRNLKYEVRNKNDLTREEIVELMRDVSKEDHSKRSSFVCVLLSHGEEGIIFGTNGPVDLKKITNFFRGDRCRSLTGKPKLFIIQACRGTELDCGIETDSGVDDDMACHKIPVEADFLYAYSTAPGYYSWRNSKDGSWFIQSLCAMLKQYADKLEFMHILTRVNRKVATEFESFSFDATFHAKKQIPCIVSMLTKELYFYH

[13] = target: T5, Sentrin-specific protease 7 (Homo sapiens, UniProt Q9BQF6); type: functional;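 further: Luminescence-based dose-response confirmation of ultra-high-throughput screening hits, measuring inhibition of SENP7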
T5 sequence (Q9BQF6 whole entry): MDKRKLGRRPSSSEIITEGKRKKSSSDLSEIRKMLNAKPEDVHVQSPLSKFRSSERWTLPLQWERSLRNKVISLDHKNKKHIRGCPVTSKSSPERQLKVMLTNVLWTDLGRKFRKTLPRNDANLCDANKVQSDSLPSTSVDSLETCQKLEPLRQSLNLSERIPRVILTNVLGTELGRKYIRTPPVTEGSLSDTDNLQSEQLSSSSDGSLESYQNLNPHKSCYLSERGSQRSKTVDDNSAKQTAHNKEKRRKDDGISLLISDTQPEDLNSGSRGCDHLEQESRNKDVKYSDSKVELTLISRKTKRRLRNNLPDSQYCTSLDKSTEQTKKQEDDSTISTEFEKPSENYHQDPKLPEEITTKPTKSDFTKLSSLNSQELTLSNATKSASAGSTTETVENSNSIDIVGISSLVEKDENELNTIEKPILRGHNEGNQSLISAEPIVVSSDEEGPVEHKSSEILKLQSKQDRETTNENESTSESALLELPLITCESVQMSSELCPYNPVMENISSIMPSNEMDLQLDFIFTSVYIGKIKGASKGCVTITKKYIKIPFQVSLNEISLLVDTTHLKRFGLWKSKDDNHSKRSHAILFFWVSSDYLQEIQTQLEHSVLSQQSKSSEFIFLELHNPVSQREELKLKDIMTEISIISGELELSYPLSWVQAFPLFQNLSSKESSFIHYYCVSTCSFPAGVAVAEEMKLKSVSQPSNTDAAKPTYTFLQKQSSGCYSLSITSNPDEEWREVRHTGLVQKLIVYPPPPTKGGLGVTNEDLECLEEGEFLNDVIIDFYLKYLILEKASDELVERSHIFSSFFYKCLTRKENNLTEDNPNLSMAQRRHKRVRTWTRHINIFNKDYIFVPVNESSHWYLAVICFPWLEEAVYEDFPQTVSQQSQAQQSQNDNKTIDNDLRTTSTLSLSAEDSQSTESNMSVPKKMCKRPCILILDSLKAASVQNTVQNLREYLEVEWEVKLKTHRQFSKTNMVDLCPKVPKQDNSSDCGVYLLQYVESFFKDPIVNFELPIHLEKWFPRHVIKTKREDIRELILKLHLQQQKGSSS

[14] = target: T6, Sentrin-specific protease 8 (Homo sapiens, UniProt Q96LD8); type: functional;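 further: luminescence read-out of SENP8 inhibition, dose-response confirmation following an ultra-high-throughput screen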
T6 sequence (Q96LD8 whole entry): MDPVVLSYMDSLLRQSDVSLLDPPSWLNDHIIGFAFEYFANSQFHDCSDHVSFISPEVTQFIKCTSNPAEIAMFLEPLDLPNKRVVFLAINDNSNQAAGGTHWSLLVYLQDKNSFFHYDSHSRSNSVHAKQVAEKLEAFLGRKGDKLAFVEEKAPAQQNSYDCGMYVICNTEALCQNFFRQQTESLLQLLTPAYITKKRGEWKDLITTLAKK

[15] = target: T7, Sentrin-specific protease 6 (Homo sapiens, UniProt Q9GZR1); type: functional;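 further: Luminescence-based dose-response confirmatory assay of SENP6 inhibition, following up an ultra-high-throughput screen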
T7 sequence (Q9GZR1 whole entry): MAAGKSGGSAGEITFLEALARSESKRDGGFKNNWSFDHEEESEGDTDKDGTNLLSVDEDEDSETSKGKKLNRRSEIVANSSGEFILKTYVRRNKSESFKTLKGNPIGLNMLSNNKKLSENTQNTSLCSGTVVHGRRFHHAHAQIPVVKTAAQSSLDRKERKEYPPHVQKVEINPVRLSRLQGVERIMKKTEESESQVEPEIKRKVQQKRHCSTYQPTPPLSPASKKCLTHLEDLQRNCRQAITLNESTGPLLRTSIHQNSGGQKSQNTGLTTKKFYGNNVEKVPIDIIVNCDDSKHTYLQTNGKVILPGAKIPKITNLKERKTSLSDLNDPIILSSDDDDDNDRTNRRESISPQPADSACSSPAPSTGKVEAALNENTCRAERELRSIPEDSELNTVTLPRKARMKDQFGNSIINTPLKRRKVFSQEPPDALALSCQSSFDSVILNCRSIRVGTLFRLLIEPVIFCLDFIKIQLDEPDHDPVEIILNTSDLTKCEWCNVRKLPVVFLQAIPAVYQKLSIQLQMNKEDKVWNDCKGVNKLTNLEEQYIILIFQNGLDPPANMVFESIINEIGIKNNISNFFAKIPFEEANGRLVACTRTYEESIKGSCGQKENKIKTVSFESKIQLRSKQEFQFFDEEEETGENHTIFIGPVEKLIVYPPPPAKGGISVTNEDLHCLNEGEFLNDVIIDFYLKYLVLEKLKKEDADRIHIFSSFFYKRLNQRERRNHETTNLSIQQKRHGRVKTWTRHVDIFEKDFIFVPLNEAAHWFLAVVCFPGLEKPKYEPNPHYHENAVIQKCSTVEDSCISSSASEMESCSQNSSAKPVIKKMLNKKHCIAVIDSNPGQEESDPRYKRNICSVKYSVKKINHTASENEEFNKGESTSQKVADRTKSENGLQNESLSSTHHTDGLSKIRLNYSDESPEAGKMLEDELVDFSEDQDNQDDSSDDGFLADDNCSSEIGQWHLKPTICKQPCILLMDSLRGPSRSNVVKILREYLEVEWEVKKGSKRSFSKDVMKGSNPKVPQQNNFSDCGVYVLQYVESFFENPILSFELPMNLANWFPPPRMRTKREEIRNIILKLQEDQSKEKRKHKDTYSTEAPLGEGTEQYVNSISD

[16] = HEp-2 cell cytotoxicity, dose response, cytotoxicity control for RSV inhibitor project, HTS (AID 2410); type: functional; details: human respiratory syncytial virus

O=C(O)CC/C(=N/Nc1ccc([N+](=O)[O-])cc1)C(=O)O
AC50 [1]: 4.79 µM (active)

O=C(Nc1ncc2c(n1)CC(c1ccco1)CC2=O)c1ccccc1 (stereo unspecified)
EC50 [2]: > 350 µM (not active) | AC50 [3]: 0.657 µM (active)

CCC(CO)Oc1cc(NC(=O)c2cccc(F)c2)c2ncn(C(C)C)c2c1 (stereo unspecified)
AC50 [3]: 5 µM (active)

COC(=O)C1CCN(C2CC(=O)N(c3cc(C)cc(C)c3)C2=O)CC1 (stereo unspecified)
AC50 [1]: 7.09 µM (active)

CC1CCc2nc(N)c(C#N)c(-c3cccnc3)c2C1 (stereo unspecified)
EC50 [4]: 1.83 µM (active) | EC50 [5]: > 120 µM (not active) | EC50 [6]: 21.9 µM (active) | EC50 [7]: 7.72 µM (active) | AC50 [8]: 9.95 µM (active)

Cc1nn(-c2ccccc2)c(N)c1Sc1ccc([N+](=O)[O-])cc1
IC50 [9]: < 0.368 µM (active) | EC50 [10]: > 53 µM (inactive) | IC50 [11]: 12.8 µM (active)

Cn1ncc2cc3c(Nc4ccc(Cl)cc4)cccc3nc21
AC50 [3]: 5.67 µM (active)

CC(NC(=O)CC(c1ccccc1)c1cc(Cl)ccc1O)c1ccccc1 (stereo unspecified)
IC50 [9]: 13.1 µM (active) | EC50 [10]: > 53 µM (inactive) | IC50 [11]: > 20 µM (inactive)

CCOC(=O)c1sc(NC(=O)c2ccc(C)s2)cc1C
IC50 [12]: 20.3 µM (active) | IC50 [13]: 4.46 µM (active) | IC50 [14]: > 100 µM (inactive) | IC50 [15]: > 100 µM (inactive)

CCS(=O)(=O)Nc1cccc(-c2cc(-c3ccccc3)c3cc(C)ccc3n2)c1
CC50 [16]: 12 µM (active) | AC50 [1]: 4.3 µM (active)

COc1ccc(NC(=O)CN(C)C(=O)C2=COCCO2)cc1
IC50 [9]: < 0.368 µM (active) | EC50 [10]: > 53 µM (inactive) | IC50 [11]: > 20 µM (inactive)

O=C(N[C@H]1CC[C@@H](CCn2cc(-c3cccnc3)nn2)O[C@@H]1CO)c1ccccc1F
AC50 [3]: 11.7 µM (active)

CC1=NN(C(N)=S)C(=O)C1N=Nc1ccccc1 (stereo unspecified)
IC50 [12]: 3.7 µM (active) | IC50 [13]: 5.13 µM (active) | IC50 [14]: > 100 µM (inactive) | IC50 [15]: 21.6 µM (active)
